Test results as given in patent US12570704B2, “Functionally modified maytansinoids and compositions and methods of use thereof” (University of Georgia Research Foundation, Inc., priority 2019, dated 2026).
Non-standard residues stand in square brackets, D forms with d. Residues, ends and D or L forms follow the SMILES beside them. ξ: configuration not given here. ξGly(4-Pip(1-amidino)) = N=C(N)N1CCC(C(N)C(=O)O)CC1; ξGly(piperidin-4-yl) = NC(C(=O)O)C1CCNCC1; ξTle = CC(C)(C)C(N)C(=O)O; ξP = O=C(O)C1CCCN1; ξC = NC(CS)C(=O)O

Columns and labels:
[1] = In vivo toxicity study (hematology, blood biochemistry, liver tissue); set-up: species or system balb/c mice; conditions: 260.8 nmol/kg i.v., Day 10
Protocol: Six-week old female albino BALB/c mice were purchased from Charles River Laboratories, USA. The animals were divided into control and experimental groups (n=3) and marked to permit individual identification. A similar dose (260.8 nmol/kg) of DM1-NO-NPs as used in therapeutic study was administered intravenously and the mice were examined for 10 days to observations for abnormal sign of toxicity such as change in behavioral, dizziness, respiratory distress or mortality were conducted until the end of the study. To further evaluate the hepatic function, alanine aminotransferase (ALT) and aspartate aminotransferase (AST) activities were measured and blood chemistry analysis was performed by using 20 μL blood serum sample form • each treated animal to assess the following: white blood cells (WBC), red blood cells (RBC), and platelets (PLT), plateletcrit, (PCT, mean platelet volume or platelet distribution width) and also corresponding sets of electrolytes (sodium, potassium, chloride, bicarbonate, sugar (glucose) calcium, inorganic phosphate, and magnesium, lipids (cholesterol), albumin, and total protein levels were also analyzed. Histological Analysis: […]

H1299 cells [2] = assay: Cell cycle arrest, PI staining and flow cytometry; type: cell-based, human; conditions: 20 nM, 24 h; PBS control 17.5%
Protocol: H1299 cells were seeded onto 6-well plates at a density of 2×10^5 cells per well and cultured overnight. The cells were then incubated with 20 nM of free drugs (DM1 and DM1-NO) or drug loaded nanoparticles (DM1-NPs and DM1-NO-NPs) for 24 h, and were then harvested and washed with ice-cold phosphate-buffered saline (PBS) and fixed with cold 70% (vol/vol) ethanol overnight at 4° C. The resulting cells were resuspended in PBS (1×) buffer containing a final concentration of 20 μg/mL RNase A and 20 μg/mL propidium iodide (eBioscience, Invitrogen, USA) for 15 min. The cell cycle profiles were determined using flow cytometry (HyperCyAn, Beckman USA) and analyzed using CellQuest software.

H1299 cells [3] = assay: MTT cell viability assay, 72 h, without RT; type: cell-based, human
Protocol: The viability of the H1299 cells after different treatments was measured by (4,5-dimethythiazon-2-yl)-2,5-diphenyl tetrazolium bromide (MTT) assay using an Infinite M200 microplate reader (BioTek's Synergy™ Mx, USA). Around 3×10^3 cells per well were seeded into a 96-well plate and cultured overnight until the cells fully adhered to the bottom of the plate. The cells were treated with different treatment groups, including free drugs (DM1 and DM1-NO), and drug loaded nanoparticles (DM1-NPs and DM1-NO-NPs) for 72 h. […] After that MTT reagent (in 20 μL PBS, 5 mg/mL) was added to each well. The cells were further incubated for 4 h at 37° C. The medium in each well was then removed and replaced by 100 μL DMSO. The plate was gently shake for 5 min (instrument setup) to dissolve the formazan crystals, and the absorbance at 570 nm was recorded by a microplate reader. Each experiment condition was run three times and the data were shown as the mean value plus a standard deviation (±SD).

H1299 cells [4] = assay: MTT cell viability assay, 72 h, in the presence of RT; type: cell-based, human; conditions: with RT
Protocol: FIGS. 7A-7E are plots showing the results of a cell cycle analysis, based on PI staining and assessed by flow cytometry. H1299 cells were incubated with PBS (7A), DM1 (7B), DM1-NO (7C), DM1-NPs (7D), or DM1-NO-NPs (20 nM, DM1 concentration) (7E) before analysis. […] FIG. 7G is a bar graphs showing Percentage of tubulin inhibition. Tubulin polymer was collected by centrifugation (35000×g for 1 h at 30° C.) and the amount of tubulin protein sediment was quantified by measuring protein concentration. ***, P<0.001. FIG. 7H is a line graph showing cell viability, tested with H1299 cells using 72-h MTT in the presence of RT. DM1, DM1-NO, and DM1-NO-NPs were studied.
The viability of the H1299 cells after different treatments was measured by (4,5-dimethythiazon-2-yl)-2,5-diphenyl tetrazolium bromide (MTT) assay using an Infinite M200 microplate reader (BioTek's Synergy™ Mx, USA). Around 3×10^3 cells per well were seeded into a 96-well plate and cultured overnight until the cells fully adhered to the bottom of the plate. The cells were treated with different treatment groups, including free drugs (DM1 and DM1-NO), and drug loaded nanoparticles (DM1-NPs and DM1-NO-NPs) for 72 h. […] The plate was gently shake for 5 min (instrument setup) to dissolve the formazan crystals, and the absorbance at 570 nm was recorded by a microplate reader. […]

H1299 cells [5] = assay: Clonogenic assay with X-ray irradiation, linear-quadratic model; type: cell-based, human; conditions: 20 nM, 12 h, X-rays 0-10 Gy
Protocol: Around 3×10^5 of H1299 cells were plated in a series of 25 mm petri dishes in 5 mL of complete RMPI-1640 medium, and the cells were incubated for 24 h at 37° C. Once the cells were completely adhered to the bottom of the plate, the media was replaced with fresh RPMI-1640 containing DM1 or DM1-NO with a final concentration of 20 nM. After another 12 h of incubation, the cell cultures were irradiated by X-rays (320 kV) of different doses Immediately following the X-ray irradiation, the cell monolayers were trypsinized using 0.05% Trypsin/EDTA (Gibco, Life Technologies, USA). Single cells were collected and plated onto a 25 mm petri dish in 5 mL complete media (FIG. 1K). Each dish was then incubated for 21 days to allow colonies to form. After that, the media was removed and 0.5% crystal violet in 70% methanol was used to fixed and stain the existing colonies. The plates were sufficiently and carefully rinsed, and were dried at room temperature. Once dried, the colonies were counted manually under a microscope. When observed under the microscope, colonies of […] were said to be surviving colonies. The survival rate of these colonies was normalized to the plating efficiency of the untreated control cells. The mean and standard deviation of surviving colonies in each treatment group was calculated.
The potential of DM1-NO as a radiosensitizer was assessed by clonogenic assays. Briefly, DM1 or DM1-NO was incubated with H1299 cells, the cells were irradiated with X-rays (0-10 Gy), and the resulting cells were seeded onto a petri dish (FIG. 1K). Colonies consisting more than 50 cells after 3 weeks were counted, and the data fit to a linear-quadratic model (Table 3).

[6] = compared to wildtype NTS; cited from earlier work
NTSR1 = NTSR1 (Homo sapiens, UniProt P30989); conditions: compared to wildtype NTS; cited from earlier work
Sequence of NTSR1 (P30989 whole entry): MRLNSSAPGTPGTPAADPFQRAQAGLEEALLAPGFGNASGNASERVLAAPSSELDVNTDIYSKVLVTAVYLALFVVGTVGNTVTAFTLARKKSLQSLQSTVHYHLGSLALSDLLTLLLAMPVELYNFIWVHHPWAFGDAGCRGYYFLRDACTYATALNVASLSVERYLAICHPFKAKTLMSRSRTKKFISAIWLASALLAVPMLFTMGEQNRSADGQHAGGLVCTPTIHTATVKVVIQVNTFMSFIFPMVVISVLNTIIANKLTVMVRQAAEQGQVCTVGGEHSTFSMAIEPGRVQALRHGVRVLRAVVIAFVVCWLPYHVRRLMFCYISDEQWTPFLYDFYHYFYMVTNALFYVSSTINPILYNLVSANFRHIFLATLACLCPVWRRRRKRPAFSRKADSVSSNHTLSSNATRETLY

Structure (SMILES) | complete blood count: WBC, RBC, PLT, PCT levels [1] | portion of cells in the G2/M phase (H1299 cells [2]) [%] | IC50 (H1299 cells [3]) [nM] | IC50 (H1299 cells [4]) [nM] | D10 (radiation dose at 10% fractional survival) (H1299 cells [5]) [Gy] | α (linear quadratic model best fit value) (H1299 cells [5]) | β (linear quadratic model best fit value) (H1299 cells [5]) | biological stability [6] | avidity to NTSR1 (NTSR1)
COc1cc2cc(c1Cl)N(C)C(=O)C[C@H](OC(=O)[C@H](C)N(C)C(=O)CCS)[C@]1(C)O[C@H]1[C@H](C)[C@@H]1C[C@@](O)(NC(=O)O1)[C@H](OC)/C=C/C=C(\C)C2 [DM1, Mertansine, reference compound] | in the normal range | 85.3 | 19.8 | 17.4 | 4.89 | 0.0729 | 0.0033 |  | 
CC(C)C[C@H](NC(=O)C(NC(=O)[C@H](Cc1ccc(O)cc1)NC(=O)C1CCCN1C(=O)[C@H](CCCNC(=N)N)NC(=O)C(NC(=O)C1CCCN1C(=O)C(NC(=O)C(N)CS)C1CCNCC1)C1CCN(C(=N)N)CC1)C(C)(C)C)C(=O)O (stereo partly drawn) [NTSmut] (H-[ξC][ξGly(piperidin-4-yl)][ξP][ξGly(4-Pip(1-amidino))]R[ξP]Y[ξTle]L-OH) |  |  |  |  |  |  |  | much greater biological stability | comparable, nanomolar avidity
